Assay results from patent publication US4866068A, “Novel HMG-CoA reductase inhibitors” (Merck & Co., Inc., priority 1988, dated 1989).

Tested on: HMG-CoA reductase
Assay: in vitro HMG-CoA reductase inhibition, relative potency versus compactin
Format: biochemical
Conditions: compactin (mevastatin) assigned a value of 100; IC50 of test compound compared with that of compactin determined simultaneously
Protocol: The intrinsic HMG-CoA reductase inhibition activity of the claimed compounds is measured in the in vitro protocol published in J. Med. Chem., 28, p. 347-358 (1985).
For estimation of relative inhibitory potencies, compactin (i.e., mevastatin) was assigned a value of 100 and the IC50 value of the test compound was compared with that of compactin determined simultaneously in the published in vitro protocol.

Row | relative potency (intrinsic HMG-CoA reductase inhibitory activity) | SMILES
1 | 100 | C[C@H]1C=C2C=C[C@H](C)[C@H](CC[C@@H]3C[C@@H](O)CC(=O)O3)[C@H]2[C@@H](OC(=O)C(C)(C)Sc2nc3ccccc3s2)C1 [Example 2]
2 | 112 | C[C@H]1C=C2C=C[C@H](C)[C@H](CC[C@@H]3C[C@@H](O)CC(=O)O3)[C@H]2[C@@H](OC(=O)C(C)(C)Sc2ccncc2)C1 [Example 1, 6R-[2-[8(S)[2-methyl-2-(4-pyridinylthio)propionyloxy]-2(S), 6(R)-dimethyl-1,2,6,7,8,8a(R)-hexahydronaphthyl-1(S)]ethyl]-4(R)-hydroxy-3,4,5,6-tetrahydro-2H-pyran-2-one]
